target: T1, PI3K γ (Homo sapiens, UniProt P48736); experiment: PI3K γ in vitro kinase inhibition assay; assay type: biochemical; settings: not given
T1 construct: purchased Sigma
T1 sequence (P48736 whole entry): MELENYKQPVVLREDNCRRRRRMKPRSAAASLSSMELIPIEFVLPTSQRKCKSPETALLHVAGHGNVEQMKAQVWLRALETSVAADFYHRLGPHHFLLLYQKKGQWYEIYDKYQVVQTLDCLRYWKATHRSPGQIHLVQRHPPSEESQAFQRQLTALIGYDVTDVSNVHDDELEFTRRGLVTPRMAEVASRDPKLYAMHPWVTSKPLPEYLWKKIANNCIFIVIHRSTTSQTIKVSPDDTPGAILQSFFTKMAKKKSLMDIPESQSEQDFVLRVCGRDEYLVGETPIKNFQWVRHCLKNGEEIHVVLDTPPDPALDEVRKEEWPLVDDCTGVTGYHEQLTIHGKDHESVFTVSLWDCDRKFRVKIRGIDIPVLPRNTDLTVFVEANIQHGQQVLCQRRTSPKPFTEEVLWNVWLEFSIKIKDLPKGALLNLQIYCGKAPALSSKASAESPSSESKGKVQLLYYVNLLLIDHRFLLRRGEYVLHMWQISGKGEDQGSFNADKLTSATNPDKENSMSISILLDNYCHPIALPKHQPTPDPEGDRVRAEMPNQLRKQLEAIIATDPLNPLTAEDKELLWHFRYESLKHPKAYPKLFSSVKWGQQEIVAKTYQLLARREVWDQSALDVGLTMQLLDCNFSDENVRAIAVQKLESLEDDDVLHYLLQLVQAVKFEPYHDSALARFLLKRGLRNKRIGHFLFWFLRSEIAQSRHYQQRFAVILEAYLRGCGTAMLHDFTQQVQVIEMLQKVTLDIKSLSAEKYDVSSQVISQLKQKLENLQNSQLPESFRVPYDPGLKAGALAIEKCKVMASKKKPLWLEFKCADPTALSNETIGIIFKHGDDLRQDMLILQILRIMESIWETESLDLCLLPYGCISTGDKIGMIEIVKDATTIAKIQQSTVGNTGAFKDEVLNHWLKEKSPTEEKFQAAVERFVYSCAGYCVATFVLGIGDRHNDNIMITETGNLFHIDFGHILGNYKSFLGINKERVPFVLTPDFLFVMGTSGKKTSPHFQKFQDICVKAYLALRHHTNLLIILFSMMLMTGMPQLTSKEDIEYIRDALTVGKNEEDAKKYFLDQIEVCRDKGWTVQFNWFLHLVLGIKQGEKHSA

SMILES | IC50 [nM]
Cc1cccnc1-n1c(Cn2nc(I)c3c(N)ncnc32)cc2cccc(C)c2c1=O [Compound 92] | < 10000
Cc1ccccc1-n1c(Cn2nc(Br)c3c(N)ncnc32)nc2snc(C)c2c1=O [Compound 239] | > 10000

target: T2, PI3K δ (Homo sapiens, UniProt O00329); experiment: PI3K δ in vitro kinase inhibition assay; assay type: biochemical; settings: not given
T2 construct: purchased Upstate
T2 sequence (O00329 whole entry): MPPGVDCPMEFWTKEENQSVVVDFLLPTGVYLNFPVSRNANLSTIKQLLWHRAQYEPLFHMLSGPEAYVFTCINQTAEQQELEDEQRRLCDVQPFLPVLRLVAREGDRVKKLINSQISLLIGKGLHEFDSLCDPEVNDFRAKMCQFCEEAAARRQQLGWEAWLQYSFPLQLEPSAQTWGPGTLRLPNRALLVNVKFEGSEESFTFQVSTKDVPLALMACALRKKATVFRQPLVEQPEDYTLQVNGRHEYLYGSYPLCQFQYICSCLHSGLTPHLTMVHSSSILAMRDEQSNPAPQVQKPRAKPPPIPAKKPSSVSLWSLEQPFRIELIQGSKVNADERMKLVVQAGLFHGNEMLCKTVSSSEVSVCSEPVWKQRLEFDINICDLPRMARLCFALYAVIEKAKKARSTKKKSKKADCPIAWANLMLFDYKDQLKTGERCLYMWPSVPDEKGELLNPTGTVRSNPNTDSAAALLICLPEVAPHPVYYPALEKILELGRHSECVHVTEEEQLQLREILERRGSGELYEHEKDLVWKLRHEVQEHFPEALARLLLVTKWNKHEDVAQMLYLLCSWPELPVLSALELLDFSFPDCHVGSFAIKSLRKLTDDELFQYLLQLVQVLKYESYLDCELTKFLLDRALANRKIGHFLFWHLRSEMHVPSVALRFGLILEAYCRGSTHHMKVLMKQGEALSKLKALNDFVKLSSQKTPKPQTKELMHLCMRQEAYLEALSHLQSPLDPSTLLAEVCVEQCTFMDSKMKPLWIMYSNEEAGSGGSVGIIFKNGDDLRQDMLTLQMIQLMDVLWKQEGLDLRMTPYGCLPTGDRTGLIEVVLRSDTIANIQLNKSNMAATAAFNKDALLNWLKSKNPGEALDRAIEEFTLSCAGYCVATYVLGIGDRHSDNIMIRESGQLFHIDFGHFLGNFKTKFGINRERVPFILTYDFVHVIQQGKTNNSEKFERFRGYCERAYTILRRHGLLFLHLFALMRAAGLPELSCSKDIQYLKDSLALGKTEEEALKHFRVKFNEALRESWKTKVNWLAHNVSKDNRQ
T2 sequence (P27986 whole entry partner): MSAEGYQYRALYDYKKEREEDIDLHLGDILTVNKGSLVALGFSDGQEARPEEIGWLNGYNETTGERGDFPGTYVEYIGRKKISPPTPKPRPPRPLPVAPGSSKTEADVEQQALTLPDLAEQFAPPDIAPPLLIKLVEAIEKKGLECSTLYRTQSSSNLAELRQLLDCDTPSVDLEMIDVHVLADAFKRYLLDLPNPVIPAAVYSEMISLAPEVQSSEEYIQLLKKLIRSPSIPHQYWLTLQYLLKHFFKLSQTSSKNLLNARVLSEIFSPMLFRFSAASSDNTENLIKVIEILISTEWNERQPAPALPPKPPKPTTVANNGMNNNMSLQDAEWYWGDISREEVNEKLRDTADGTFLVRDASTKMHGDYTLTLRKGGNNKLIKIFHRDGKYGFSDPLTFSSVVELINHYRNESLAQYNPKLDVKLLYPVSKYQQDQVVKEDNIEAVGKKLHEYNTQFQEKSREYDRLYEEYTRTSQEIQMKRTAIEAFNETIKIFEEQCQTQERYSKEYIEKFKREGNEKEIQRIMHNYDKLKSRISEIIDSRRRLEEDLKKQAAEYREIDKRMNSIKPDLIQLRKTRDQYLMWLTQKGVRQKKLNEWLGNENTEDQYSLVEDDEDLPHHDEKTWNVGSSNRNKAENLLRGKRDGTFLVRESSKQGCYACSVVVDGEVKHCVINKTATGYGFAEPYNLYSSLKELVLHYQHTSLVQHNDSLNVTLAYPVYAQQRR

SMILES | IC50 [nM]
Cc1cccnc1-n1c(Cn2nc(I)c3c(N)ncnc32)cc2cccc(C)c2c1=O [Compound 92] | < 10000
Cc1ccccc1-n1c(Cn2nc(Br)c3c(N)ncnc32)nc2snc(C)c2c1=O [Compound 239] | < 1000

tested on: Balb/c splenic B cells; experiment: B cell activation and proliferation assay (Alamar Blue); assay type: cell-based; settings: Mus musculus, read-out: B cell proliferation EC50
Description: The assay is performed in a 96 well microtiter plate using Alamar Blue reduction. Balb/c splenic B cells are purified over a Ficoll-Paque™ PLUS gradient followed by magnetic cell separation using a MACS B cell Isolation Kit (Miletenyi). Cells are plated in 90 ul at 50,000 cells/well in B Cell Media (RPMI+10% FBS+Penn/Strep+50 uM bME+5 mM HEPES). A compound disclosed herein is diluted in B Cell Media and added in a 10 ul volume. Plates are incubated for 30 min at 37 C and 5% CO2 (0.2% DMSO final concentration). A 50 ul B cell stimulation cocktail is then added containing either 10 ug/ml LPS or 5 ug/ml F(ab′)2 Donkey anti-mouse IgM plus 2 ng/ml recombinant mouse IL4 in B Cell Media. […] A volume of 15 uL of Alamar Blue reagent is added to each well and plates are incubated for 5 hours at 37 C and 5% CO2. Alamar Blue fluoresce is read at 560Ex/590Em, and IC50 or EC50 values are calculated using GraphPad Prism 5.

SMILES | EC50 [nM]
CCc1ccccc1-n1c(Cn2nc(-c3cccc(O)c3)c3c(N)ncnc32)cc2cccc(C)c2c1=O [Compound 88] | < 100
CCc1ccccc1-n1c(Cn2nc(-c3cc(O)cc(F)c3)c3c(N)ncnc32)cc2cccc(C)c2c1=O [Compound 89] | < 100
Cc1cccc2cc(Cn3nc(-c4cc(O)cc(F)c4)c4c(N)ncnc43)n(-c3ccccc3O)c(=O)c12 [Compound 90] | < 100
Cc1cccc2cc(Cn3nc(C#C[C@@H](C)O)c4c(N)ncnc43)n(-c3ccccc3O)c(=O)c12 [Compound 91] | < 1000
Cc1cccc2cc(Cn3nc(-c4cc(O)cc(F)c4)c4c(N)ncnc43)n(-c3ccccc3C(C)C)c(=O)c12 [Compound 95] | < 100
Cc1cccc2cc(Cn3nc(-c4cccc(O)c4)c4c(N)ncnc43)n(-c3ccccc3Cl)c(=O)c12 [Compound 96] | < 100
Cc1cccc2cc(Cn3nc(-c4cc(O)cc(F)c4)c4c(N)ncnc43)n(-c3ccccc3Cl)c(=O)c12 [Compound 97] | < 100
Cc1cccc2cc(Cn3nc(C#C[C@@H](C)O)c4c(N)ncnc43)n(-c3ccccc3Cl)c(=O)c12 [Compound 98] | < 1000
CCc1ccccc1-n1c(Cn2nc(C#C[C@@H](C)O)c3c(N)ncnc32)cc2cccc(C)c2c1=O [Compound 99] | < 100
Cc1cccc2cc(Cn3nc(C#C[C@@H](C)O)c4c(N)ncnc43)n(C3CC3)c(=O)c12 [Compound 100] | < 1000
Cc1cccc2cc(Cn3nc(-c4cc(O)cc(F)c4)c4c(N)ncnc43)n(C3CC3)c(=O)c12 [Compound 101] | < 100
Cc1cccc2cc(Cn3nc(-c4cccc(O)c4)c4c(N)ncnc43)n(C3CC3)c(=O)c12 [Compound 102] | < 100
Cc1cccc2cc(Cn3nc(I)c4c(N)ncnc43)n(-c3ccccc3OCCN3CCOCC3)c(=O)c12 [Compound 103] | < 1000
Cc1cccc2cc(Cn3nc(I)c4c(N)ncnc43)n(C3CCC3)c(=O)c12 [Compound 105] | < 1000
COc1cccc(-c2nn(Cc3cc4cccc(C)c4c(=O)n3-c3ccccc3C)c3ncnc(N)c23)c1 [Compound 106] | < 1000
Cc1cccc2cc(Cn3nc(I)c4c(N)ncnc43)n(C)c(=O)c12 [Compound 107] | < 1000
Cc1cccc2cc(Cn3nc(-c4cc(O)cc(F)c4)c4c(N)ncnc43)n(-c3ccccc3OCCN3CCOCC3)c(=O)c12 [Compound 108] | < 100
Cc1cccc2cc(Cn3nc(-c4cccc(O)c4)c4c(N)ncnc43)n(-c3ccccc3OCCN3CCOCC3)c(=O)c12 [Compound 109] | < 100
Cc1cccc2cc(Cn3nc(-c4cc(O)cc(F)c4)c4c(N)ncnc43)n(C3CCCCC3)c(=O)c12 [Compound 110] | < 1000
Cc1cccc2cc(Cn3nc(-c4cccc(O)c4)c4c(N)ncnc43)n(C3CCCCC3)c(=O)c12 [Compound 111] | < 1000
Cc1cccc2cc(Cn3nc(C#C[C@@H](C)O)c4c(N)ncnc43)n(C3CCCCC3)c(=O)c12 [Compound 112] | < 10000
Cc1ccccc1-n1c(Cn2nc(-c3cc(O)cc(F)c3)c3c(N)nccc32)cc2cccc(C)c2c1=O [Compound 113] | < 100

SMILES | EC50 [nM]
Cc1cccc2cc(Cn3nc(-c4cccc(O)c4)c4c(N)ncnc43)n(C3CCC3)c(=O)c12 [Compound 114] | < 1000
Cc1cccc2cc(Cn3nc(-c4cc(O)cc(F)c4)c4c(N)ncnc43)n(C3CCC3)c(=O)c12 [Compound 115] | < 100
Cc1cccc2cc(Cn3nc(-c4ccc(Cl)c(O)c4)c4c(N)ncnc43)n(C(C)C)c(=O)c12 [Compound 123] | < 100
Cc1cccc2cc(Cn3nc(-c4cccc(O)c4)c4c(N)ncnc43)n(C)c(=O)c12 [Compound 124] | < 1000
Cc1cccc2cc(Cn3nc(-c4cc(O)cc(F)c4)c4c(N)ncnc43)n(C)c(=O)c12 [Compound 125] | < 100
CCn1c(Cn2nc(-c3cccc(O)c3)c3c(N)ncnc32)cc2cccc(C)c2c1=O [Compound 126] | < 100
Cc1cccc2cc(Cn3nc(-c4cc(O)cc(F)c4)c4c(N)ncnc43)n(C3CCOCC3)c(=O)c12 [Compound 128] | < 100
CC(C)n1c(Cn2nc(-c3cccc(O)c3)c3c(N)ncnc32)cc2cccc(F)c2c1=O [Compound 133] | < 1000
CC(C)n1c(Cn2nc(-c3cc(O)cc(F)c3)c3c(N)ncnc32)cc2cccc(F)c2c1=O [Compound 134] | < 100
CC(C)n1c(Cn2nc(-c3cccc(O)c3)c3c(N)ncnc32)cc2ccccc2c1=O [Compound 135] | < 1000
CC(C)n1c(Cn2nc(-c3cc(O)cc(F)c3)c3c(N)ncnc32)cc2ccccc2c1=O [Compound 136] | < 100
CC(C)n1c(Cn2nc(-c3cccc(O)c3)c3c(N)ncnc32)cc2cccc(Cl)c2c1=O [Compound 137] | < 100
CC(C)n1c(Cn2nc(-c3cc(O)cc(F)c3)c3c(N)ncnc32)cc2cccc(Cl)c2c1=O [Compound 138] | < 100
Nc1ncnc2c1c(I)nn2Cc1cc2cccc(Cl)c2c(=O)n1C1CC1 [Compound 139] | < 100
Nc1ncnc2c1c(-c1cccc(O)c1)nn2Cc1cc2cccc(Cl)c2c(=O)n1C1CC1 [Compound 141] | < 100
Nc1ncnc2c1c(-c1cc(O)cc(F)c1)nn2Cc1cc2cccc(Cl)c2c(=O)n1C1CC1 [Compound 142] | < 100
Nc1ncnc2c1c(-c1cc(O)cc(F)c1)nn2Cc1cc2cccc(F)c2c(=O)n1-c1ccccc1F [Compound 144] | < 100
Cc1ccccc1-n1c(Cn2nc(-c3ccc4nc(N)sc4c3)c3c(N)ncnc32)cc2cccc(C)c2c1=O [Compound 145] | < 1000
Cc1cccc2cc(Cn3nc(-c4cccc(O)c4)c4c(N)ncnc43)n(-c3ccccc3)c(=O)c12 [Compound 146] | < 100
Cc1cccc2cc(Cn3nc(-c4cc(O)cc(F)c4)c4c(N)ncnc43)n(-c3ccccc3)c(=O)c12 [Compound 147] | < 100
CNC(=O)Nc1nc2ccc(-c3nn(Cc4cc5cccc(C)c5c(=O)n4-c4ccccc4C)c4ncnc(N)c34)cc2s1 [Compound 148] | < 100
Cc1ccccc1-n1c(Cn2nc(-c3ccc4nc(N)ccc4c3)c3c(N)ncnc32)cc2cccc(C)c2c1=O [Compound 149] | < 100

SMILES | EC50 [nM]
Cc1ccccc1-n1c(Cn2nc(-c3ccc4nc(N)ncc4c3)c3c(N)ncnc32)cc2cccc(C)c2c1=O [Compound 150] | < 100
Cc1ccccc1-n1c(Cn2nc(-c3ccc4ncnc(N)c4c3)c3c(N)ncnc32)cc2cccc(C)c2c1=O [Compound 152] | < 1000
CC(=O)Nc1nc2ccc(-c3nn(Cc4cc5cccc(C)c5c(=O)n4C)c4ncnc(N)c34)cc2s1 [Compound 153] | < 100
CC(=O)Nc1nc2ccc(-c3nn(Cc4cc5cccc(C)c5c(=O)n4C(C)C)c4ncnc(N)c34)cc2s1 [Compound 154] | < 100
CC(=O)Nc1nc2ccc(-c3nn(Cc4cc5cccc(C)c5c(=O)n4C4CC4)c4ncnc(N)c34)cc2s1 [Compound 155] | < 100
CC(=O)Nc1nc2ccc(-c3nn(Cc4cc5cccc(Cl)c5c(=O)n4C4CC4)c4ncnc(N)c34)cc2s1 [Compound 156] | < 100
CC(=O)Nc1nc2ccc(-c3nn(Cc4cc5cccc(Cl)c5c(=O)n4C(C)C)c4ncnc(N)c34)cc2s1 [Compound 157] | < 100
CC(=O)Nc1nc2ccc(-c3nn(Cc4cc5cccc(F)c5c(=O)n4C(C)C)c4ncnc(N)c34)cc2s1 [Compound 158] | < 100
CC(=O)Nc1nc2ccc(-c3nn(Cc4cc5cccc(C)c5c(=O)n4C4CCC4)c4ncnc(N)c34)cc2s1 [Compound 159] | < 100
Cc1ccccc1-n1c(Cn2nc(-c3cn[nH]c3)c3c(N)ncnc32)cc2cccc(C)c2c1=O [Compound 160] | < 100
Cc1cccc2cc(Cn3nc(-c4cn[nH]c4)c4c(N)ncnc43)n(-c3ccccc3F)c(=O)c12 [Compound 161] | < 1000
Cc1ccccc1-n1c(Cn2nc(-c3cnn(CCO)c3)c3c(N)ncnc32)cc2cccc(C)c2c1=O [Compound 163] | < 1000
Cc1cccc2cc(Cn3nc(-c4cn[nH]c4)c4c(N)ncnc43)n(-c3cccc(F)c3)c(=O)c12 [Compound 166] | < 100
Cc1cccc2cc(C(C)Nc3ncnc4[nH]cnc34)n(-c3ccccc3F)c(=O)c12 (stereo not shown) [Compound 167] | < 100
Cc1ccccc1-n1c(Cn2nc(C#N)c3c(N)ncnc32)cc2cccc(C)c2c1=O [Compound 170] | < 100
Cc1cccc2cc(Cn3nc(/C=C4/SC(=O)NC4=O)c4c(N)ncnc43)n(-c3ccccc3F)c(=O)c12 [Compound 171] | < 100
Cc1ccccc1-n1c(Cn2nc(/C=C3/SC(=O)NC3=O)c3c(N)ncnc32)cc2cccc(C)c2c1=O [Compound 173] | < 100
Cc1ccccc1-n1c(Cn2nc(/C=C/C(N)=O)c3c(N)ncnc32)cc2cccc(C)c2c1=O [Compound 174] | < 100
CCn1c(Cn2nc(-c3ccc4nc(NC(C)=O)sc4c3)c3c(N)ncnc32)cc2cccc(C)c2c1=O [Compound 176] | < 100
CC(=O)Nc1nc2ccc(-c3nn(Cc4cc5cccc(C)c5c(=O)n4-c4ccccc4)c4ncnc(N)c34)cc2s1 [Compound 177] | < 100
CC(=O)Nc1nc2ccc(-c3nn(Cc4cc5cccc(C)c5c(=O)n4-c4cccc(F)c4)c4ncnc(N)c34)cc2s1 [Compound 178] | < 100
C=Cc1nn(Cc2cc3cccc(C)c3c(=O)n2-c2ccccc2C)c2ncnc(N)c12 [Compound 180] | < 100

same assay, conditions: Mus musculus, read-out: B cell proliferation EC50 (nM)

SMILES | EC50 [nM]
Cc1cccc2cc(Cn3nc(C#N)c4c(N)ncnc43)n(-c3ccccc3F)c(=O)c12 [Compound 169] | < 1000

target: T3, PI3K α (Homo sapiens, UniProt P42336); experiment: PI3K α in vitro kinase inhibition assay; assay type: biochemical; settings: not given
T3 construct: purchased Upstate
T3 sequence (P42336 whole entry): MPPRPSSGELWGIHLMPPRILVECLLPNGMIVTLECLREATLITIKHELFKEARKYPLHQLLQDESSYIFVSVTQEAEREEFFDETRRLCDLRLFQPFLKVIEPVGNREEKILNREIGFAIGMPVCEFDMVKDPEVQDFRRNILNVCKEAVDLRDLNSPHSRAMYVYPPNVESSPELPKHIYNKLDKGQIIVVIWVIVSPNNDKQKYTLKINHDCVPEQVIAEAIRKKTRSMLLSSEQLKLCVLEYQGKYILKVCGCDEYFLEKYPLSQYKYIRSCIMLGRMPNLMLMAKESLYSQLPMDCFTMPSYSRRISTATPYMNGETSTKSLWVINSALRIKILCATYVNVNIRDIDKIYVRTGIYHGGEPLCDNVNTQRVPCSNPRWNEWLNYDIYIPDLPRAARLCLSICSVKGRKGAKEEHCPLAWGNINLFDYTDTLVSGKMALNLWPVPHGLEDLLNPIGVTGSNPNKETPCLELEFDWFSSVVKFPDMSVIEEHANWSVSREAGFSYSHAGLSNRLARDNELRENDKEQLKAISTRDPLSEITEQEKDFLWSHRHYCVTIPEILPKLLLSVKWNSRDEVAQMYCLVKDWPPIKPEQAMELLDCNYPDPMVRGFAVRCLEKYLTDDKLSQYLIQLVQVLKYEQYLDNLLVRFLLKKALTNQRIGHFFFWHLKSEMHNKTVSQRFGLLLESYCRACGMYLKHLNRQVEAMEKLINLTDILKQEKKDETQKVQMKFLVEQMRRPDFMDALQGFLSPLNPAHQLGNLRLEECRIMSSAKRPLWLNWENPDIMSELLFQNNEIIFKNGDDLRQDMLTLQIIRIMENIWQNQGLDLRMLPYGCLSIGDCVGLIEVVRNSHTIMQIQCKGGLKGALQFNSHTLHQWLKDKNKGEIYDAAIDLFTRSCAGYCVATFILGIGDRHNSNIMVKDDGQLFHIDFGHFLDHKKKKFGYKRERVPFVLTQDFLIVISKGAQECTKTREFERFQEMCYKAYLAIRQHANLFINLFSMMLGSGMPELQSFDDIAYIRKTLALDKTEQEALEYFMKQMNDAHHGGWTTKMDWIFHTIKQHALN
T3 sequence (P27986 whole entry partner): as the sequence (P27986 whole entry partner) above

SMILES | IC50 [nM]
Cc1ccccc1-n1c(Cn2nc(Br)c3c(N)ncnc32)nc2snc(C)c2c1=O [Compound 239] | > 10000

target: T4, PI3K β (Homo sapiens, UniProt P42338); experiment: PI3K β in vitro kinase inhibition assay; assay type: biochemical; settings: not given
T4 construct: purchased Upstate
T4 sequence (P42338 whole entry): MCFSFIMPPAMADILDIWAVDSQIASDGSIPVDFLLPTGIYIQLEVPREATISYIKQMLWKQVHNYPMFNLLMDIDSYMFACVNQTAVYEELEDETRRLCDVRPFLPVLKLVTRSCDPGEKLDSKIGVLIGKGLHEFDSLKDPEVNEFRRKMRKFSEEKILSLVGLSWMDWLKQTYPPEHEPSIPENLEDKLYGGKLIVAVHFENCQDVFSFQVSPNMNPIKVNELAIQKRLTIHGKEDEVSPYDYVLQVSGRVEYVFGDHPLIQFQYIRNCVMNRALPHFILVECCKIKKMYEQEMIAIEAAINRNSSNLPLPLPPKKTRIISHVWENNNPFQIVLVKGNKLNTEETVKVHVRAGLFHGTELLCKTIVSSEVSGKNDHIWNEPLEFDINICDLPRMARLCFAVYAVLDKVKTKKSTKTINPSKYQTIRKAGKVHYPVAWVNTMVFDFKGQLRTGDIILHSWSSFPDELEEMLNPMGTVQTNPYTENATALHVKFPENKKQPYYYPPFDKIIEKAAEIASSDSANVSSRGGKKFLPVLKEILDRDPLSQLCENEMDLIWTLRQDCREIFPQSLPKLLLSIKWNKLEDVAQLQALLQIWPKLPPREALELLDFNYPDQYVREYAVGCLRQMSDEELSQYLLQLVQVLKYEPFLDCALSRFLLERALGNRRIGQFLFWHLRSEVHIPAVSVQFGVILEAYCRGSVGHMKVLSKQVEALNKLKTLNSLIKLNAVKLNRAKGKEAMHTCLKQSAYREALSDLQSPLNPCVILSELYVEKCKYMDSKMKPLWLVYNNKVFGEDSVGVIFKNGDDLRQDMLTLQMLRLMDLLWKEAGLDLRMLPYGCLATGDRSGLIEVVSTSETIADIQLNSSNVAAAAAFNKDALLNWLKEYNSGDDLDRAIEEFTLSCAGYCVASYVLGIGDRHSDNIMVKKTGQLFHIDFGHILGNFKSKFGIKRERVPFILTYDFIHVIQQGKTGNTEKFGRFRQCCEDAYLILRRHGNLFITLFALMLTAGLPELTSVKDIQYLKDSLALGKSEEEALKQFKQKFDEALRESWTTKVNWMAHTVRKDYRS
T4 sequence (P27986 whole entry partner): as the sequence (P27986 whole entry partner) above

SMILES | IC50 [nM]
Cc1ccccc1-n1c(Cn2nc(Br)c3c(N)ncnc32)nc2snc(C)c2c1=O [Compound 239] | > 10000

Reference: US9822131B2, “Certain chemical entities, compositions and methods” (Intellikine LLC, priority 2008, dated 2017)
